US7572612B2, “Method of production of para-hydroxycinnamic acid using a thermostable TAL enzyme” (E.I. du Pont de Nemours and Company, priority 2006, dated 2009)

Legend:
[1] = system: Phanerochaete chrysosporium tyrosine ammonia lyase PcTAL (PAL/TAL enzyme), wild type, SEQ ID NO:1; test: PcTAL substrate test with histidine; format: biochemical; conditions: 20 mM histidine, 100 mM diethanol amime at pH 9, 1.3 mM 2-mercaptoethanol, 0.1 mM MnCl2
Description: The increase of TAL and PAL activities with increasing substrate concentrations followed the typical Michaelis-Menton equation. The kcat of the enzyme was 1.3 S^−1 for tyrosine, and 3.3 S^−1 for phenylalanine. The KM was 44 μM for tyrosine and 161 μM for phenylalanine. The kcat/KM value was slightly higher for tyrosine (3.0 M^−1 S^−1) than for phenylalanine (2.1 M^−1 S^−1), indicating the enzyme's slight preference for tyrosine (PAL/TAL ratio of 0.7). […] The substrate specificity of the PcTAL enzyme is therefore similar to other known fungal PAL/TAL enzymes, such as that from R. glutinis, with dual specificity for tyrosine and phenylalanine.

[2] = system: Phanerochaete chrysosporium tyrosine ammonia lyase PcTAL (PAL/TAL enzyme), wild type, SEQ ID NO:1; test: Kinetic parameters of the PcTAL enzyme for tyrosine and phenylalanine; format: biochemical; conditions: 45° C., 100 mM CAPS, pH 9.5 buffer
Description: The PAL and TAL activities of the purified enzymes were measured using a spectrophotometer according to Abell et al., [Phenylalanine Ammonia-lyase from Yeast Rhodotorula glutinis,” Methods Enzymol. 142:242-248 (1987)]. The assay for PAL determination was initiated by addition of the enzyme to a 50 mM Tris-HCl (pH 8.5) buffer solution containing 1.0 mM L-phenylalanine. The reaction was followed by monitoring the CA production at λ290 nm and the activity was calculated using a molar extinction coefficient of […]. The assay was run over a 5 min period using an amount of enzyme that produced absorbance changes in the range of 0.0075 to 0.018/min. One unit of activity indicated deamination of 1.0 micro-mol of phenylalanine to CA per minute. The TAL activity was similarly measured using tyrosine, instead of phenylalanine, in the reaction solution. The absorbance of the pHCA produced was followed at λ315 nm and the activity was determined using an extinction coefficient of 10,000 cm^−1 for pHCA. One unit of activity indicated deamination of 1.0 micro-mol of tyrosine to pHCA per minute. Some TAL assays were performed at pH 9.5 or 10.0 in 100 mM CAPS buffer. The TAL activity was measured as described above, except that the extinction coefficient was 16,800 cm^−1 for pHCA.
The TAL assay was typically performed in a 1.5 ml capacity UV grade disposable cuvette (VWR) at 35° C. using a Perkin-Elmer Lamba20 spectrophotometer (Wellesley, Mass.). The reaction (1.0 ml volume) contained the soluble protein sample, 100 mM CAPS pH10 buffer and 10 mM tyrosine and was monitored for 3 minutes at I315 nm. The TAL activity (U/g) was calculated as follows: Total TAL activity (mM/min)=D315 nm/min×[…] divided by pHCA extinction coefficient (M^−1 cm^−1)=D315 nm/min×[…] divided by 16,800 (M^−1 cm^−1). TAL specific activity (U/g)=total TAL activity (mM/min) divided by the amount of protein used in the assay. Gel Electrophoresis
Six grams of cell pellet, from the 10 liter fermentation of DPD5154 was resuspended in 6.0 mL Buffer A (10 mM Tris-HCl, pH 8.0, 200 μM EDTA) containing one EDTA-free protease inhibitor tablet (Roche Biosciences, Palo Alto, Calif.), 1.0 μg/ml Leupeptin, 1.0 μg/ml Pepstatin, 40 μg/ml Bestatin 5.0 mM CA. Cells were lysed by two passes through a French Pressure Cell at 20,000 PSI, and clarified by centrifugation at 12,000×g for 20 minutes. To the clarified supernatant, 1.0% streptomycin sulfate was added, and the suspension was gently mixed for 15 minutes at 4° C. and then clarified by centrifugation at 12,000×g for 20 minutes. The supernatant was heated at 60° C. for 20 min, and centrifuged again at 12,000×g for 20 minutes. […]

Row | Structure (SMILES) | acceptance as a substrate [1] | Km [2] [µM] | kcat [2] [S^−1]
1 | N[C@@H](Cc1c[nH]cn1)C(=O)O [histidine] | did not accept histidine as a substrate |  | 
2 | N[C@@H](Cc1ccccc1)C(=O)O [phenylalanine] |  | 161 | 3.3
3 | N[C@@H](Cc1ccc(O)cc1)C(=O)O [tyrosine] |  | 44 | 1.3
